# Reference: patent publication US11345761B2, “Esterified selenium polysaccharide and preparation method and use therefor” (AI-MAY ZHONG KE SELENIUM TECHNOLOGY (TIANJIN) CO., LTD, priority 2018, dated 2022)
# Legend:
# [1] = tested on: IL-4; assay: IL-4 expression in B-6 splenocytes, flow cytometry; format: cell-based; details: 2 to 5 micrograms selenium/mL, 48 hours, compared with 1,3-glucose hexasaccharide
# Description: (§1) B-6 splenocytes were used as the experimental model. Carrageenan, chitohexaose, 1,3-glucose hexasaccharide, PMA+innomycin were used as controls and incubated in the culture medium containing the esterified selenium polysaccharide of the present invention (2 to 5 micrograms selenium/mL) for 48 hours to detect the expression of IL-4 and IFN-γ thereof.
# (§2) In the Example, the culture medium for culturing B-6 spleen cells is the culture medium for culturing B-6 spleen cells conventionally in the art, and contains essential and non-essential amino acids, vitamins, glucose, hormones, growth factors, trace minerals and low-concentration fetal bovine serum (2%) and 5 mi penicillin/streptomycin solution. The buffer system of the medium is phosphate buffered saline solution PBS, and the pH value is 7.4 after equilibrating in a cell incubator containing 5% CO2.
# (§3) After the cells were harvested, they were stained with BD Bioscience's Cytofix/Cytoperm kit and detected by flow cytometry.
# [2] = tested on: IFN-γ; assay: IFN-γ expression in B-6 splenocytes, flow cytometry; format: cell-based; details: 2 to 5 micrograms selenium/mL, 48 hours, compared with 1,3-glucose hexasaccharide
# Description: as §1, §2, §3
# [3] = Blood detection after feeding mice; format: in vivo; parameters: red blood cell: unit not given here
# Text: Mice, which were used as a model, were fed with the esterified selenium polysaccharide prepared by the present invention continuously at a selenium dose of 2 to 5 micrograms of selenium/day for 2 weeks. A polysaccharide without the esterified selenium was used as a control. […] The above-mentioned detection data became stable starting from week 5.
# [4] = tested on: glutathione peroxidase (GSH-Px); assay: Serum GSH-Px activity after feeding chicks; format: in vivo; details: 5 micrograms of selenium/day
# Description: (§4) Chicks, which were used as a model, were fed with the esterified selenium polysaccharide of the present invention continuously at a dose of 5 micrograms of selenium/day after birth. A polysaccharide without the esterified selenium was used as a control. On days 7, 14, 21, and 28 after feeding, the assay of the activity of glutathione peroxidase (GSH-Px) and superoxide dismutase (SOD) was performed (using commercially available kits EnzyChrom™ Glutahione Peroxidase Assay Kit and MIBio Mouse superoxide dismutase (SOD) kit for completion of the assay).
# [5] = tested on: superoxide dismutase (SOD); assay: Serum SOD activity after feeding chicks; format: in vivo; details: 5 micrograms of selenium/day
# Description: as §4
# [6] = fed 2 to 5 micrograms of selenium/day, week 3 to week 6
substance,measurement,setting,value
esterified selenium polysaccharide,increase of maximum expression of IL-4,[1],60%
same,increase of maximum expression of IFN-γ,[2],36%
same,Selenium content in serum,"[3]; Week 1, 2 μg/day selenium",0.4 µg/L
same,red blood cell,"[3]; Week 1, 2 μg/day selenium",9.58 ×10^6
same,white blood cell,"[3]; Week 1, 2 μg/day selenium",7260 mL⁻¹
same,Selenium content in serum,"[3]; Week 1, 5 μg/day selenium",0.7 µg/L
same,red blood cell,"[3]; Week 1, 5 μg/day selenium",9.66 ×10^6
same,white blood cell,"[3]; Week 1, 5 μg/day selenium",7290 mL⁻¹
same,Selenium content in serum,"[3]; Week 3, 2 μg/day selenium",2.9 µg/L
same,red blood cell,"[3]; Week 3, 2 μg/day selenium",9.75 ×10^6
same,white blood cell,"[3]; Week 3, 2 μg/day selenium",7360 mL⁻¹
same,Selenium content in serum,"[3]; Week 3, 5 μg/day selenium",4.5 µg/L
same,red blood cell,"[3]; Week 3, 5 μg/day selenium",9.97 ×10^6
same,white blood cell,"[3]; Week 3, 5 μg/day selenium",7570 mL⁻¹
same,Selenium content in serum,"[3]; Week 4, 2 μg/day selenium",6.1 µg/L
same,red blood cell,"[3]; Week 4, 2 μg/day selenium",10.5 ×10^6
same,white blood cell,"[3]; Week 4, 2 μg/day selenium",7590 mL⁻¹
same,Selenium content in serum,"[3]; Week 4, 5 μg/day selenium",6.8 µg/L
same,red blood cell,"[3]; Week 4, 5 μg/day selenium",10.5 ×10^6
same,white blood cell,"[3]; Week 4, 5 μg/day selenium",7910 mL⁻¹
same,Selenium content in serum,"[3]; Week 5, 2 μg/day selenium",6.9 µg/L
same,red blood cell,"[3]; Week 5, 2 μg/day selenium",11.1 ×10^6
same,white blood cell,"[3]; Week 5, 2 μg/day selenium",7960 mL⁻¹
same,Selenium content in serum,"[3]; Week 5, 5 μg/day selenium",7.3 µg/L
same,red blood cell,"[3]; Week 5, 5 μg/day selenium",11.4 ×10^6
same,white blood cell,"[3]; Week 5, 5 μg/day selenium",7990 mL⁻¹
same,Selenium content in serum,"[3]; Week 6, 2 μg/day selenium",7.0 µg/L
same,red blood cell,"[3]; Week 6, 2 μg/day selenium",11.2 ×10^6
same,white blood cell,"[3]; Week 6, 2 μg/day selenium",7960 mL⁻¹
same,Selenium content in serum,"[3]; Week 6, 5 μg/day selenium",7.3 µg/L
same,red blood cell,"[3]; Week 6, 5 μg/day selenium",11.5 ×10^6
same,white blood cell,"[3]; Week 6, 5 μg/day selenium",7990 mL⁻¹
same,increase of red blood cells,[3]; [6],20%
same,increase of selenium content in serum,[3]; [6],more than 30%
same,increase of white blood cells,[3]; [6],10%
same,Serum GSH-Px,[4]; Day 1,1869 U/mg
same,Serum GSH-Px,[4]; Day 7,1879 U/mg
same,Serum GSH-Px,[4]; Day 14,1975 U/mg
same,Serum GSH-Px,[4]; Day 21,2150 U/mg
same,Serum GSH-Px,[4]; Day 28,2090 U/mg
same,increase of chick GHS-Px activity at maximum,[4]; maximum on days 14-21,15%
same,Serum SOD,[5]; Day 1,180 U/mg
same,Serum SOD,[5]; Day 7,191 U/mg
same,Serum SOD,[5]; Day 14,195 U/mg
same,Serum SOD,[5]; Day 21,190 U/mg
same,Serum SOD,[5]; Day 28,187 U/mg
same,increase of SOD at maximum,[5]; maximum on days 7-14,12%
